Laboratory results: patent US11390604B2 (Hoffmann-La Roche Inc., priority 2019, dated 2022)
Counter-ions that a name gives are not always drawn. Like-named read-outs stand apart in the source and are kept apart here.

Tested on: Acinetobacter baumannii ATCC 17961
Experiment: Antimicrobial susceptibility testing: 90% growth inhibitory concentration (IC90) determination
Type: cell-based
Summary of the method: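 Broth microdilution in Iso-Sensitest medium, twofold series (e.g. 50 to 0.097 μM final), ~5×10^5 CFU/ml inoculum, 35±2 °C. OD600 read every 20 min over 16 h. IC90 derived from growth inhibition during logarithmic phase.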

[1] = ATCC17961, Acinetobacter baumannii ATCC 17961, Iso-Sensitest broth, read-out: ATCC 17961 IC90

Molecule	IC90 [1]	further results
Cn1c(-c2cn(C3CC3)nc2C(F)(F)F)cnc1C(=O)Nc1ccc(C(=O)N2CCN(CCN)CC2)c(Cl)c1 [Example 228, N-(4-(4-(2-aminoethyl)piperazine-1-carbonyl)-3-chlorophenyl)-5-(1-cyclopropyl-3-(trifluoromethyl)-1H-pyrazol-4-yl)-1-methyl-1H-imidazole-2-carboxamide formate]	0.263 µM	
CCn1cc(-c2cnc(C(=O)Nc3ccc(C(=O)N4CCC(CCN)CC4)c(Cl)c3)n2C)c(C(F)(F)F)n1 [Example 239, N-(4-(4-(2-aminoethyl)piperidine-1-carbonyl)-3-chlorophenyl)-5-(1-ethyl-3-(trifluoromethyl)-1H-pyrazol-4-yl)-1-methyl-1H-imidazole-2-carboxamide hydrochloride]	0.273 µM	
Cn1c(-c2cn(CC3CC3)nc2C(F)(F)F)cnc1C(=O)Nc1ccc(C(=O)N2CCN(C(=O)C3[C@H]4CNC[C@@H]34)CC2)c(Cl)c1 (mixture of isomers) [Example 358, rac-N-(4-(4-((1R,5S)-3-azabicyclo[3.1.0]hexane-6-carbonyl)piperazine-1-carbonyl)-3-chlorophenyl)-5-(1-(cyclopropylmethyl)-3-(trifluoromethyl)-1H-pyrazol-4-yl)-1-methyl-1H-imidazole-2-carboxamide hydrochloride]	0.467 µM	
Cn1c(-c2cn(C3CC3(F)F)nc2C(F)(F)F)cnc1C(=O)Nc1ccc(C(=O)N[C@H]2[C@@H]3CN(C(=O)N[C@@H]4CCC[C@@H]4N)C[C@@H]32)c(Cl)c1 (mixture of isomers) [Example 186, cis-N-[(1R,2S)-2-aminocyclopentyl]-6-[[2-chloro-4-[[5-[1-(2,2-difluorocyclopropyl)-3-(trifluoromethyl)pyrazol-4-yl]-1-methylimidazole-2-carbonyl]amino]benzoyl]amino]-3-azabicyclo[3.1.0]hexane-3-carboxamide, formate salt]	0.15 µM	
CCn1cc(-c2cnc(C(=O)Nc3ccc(C(=O)N4CCN(C(=O)CN)CC4)c(Cl)c3)n2C)c(C(F)(F)F)n1 [Example 330, N-[4-[4-(2-aminoacetyl)piperazine-1-carbonyl]-3-chlorophenyl]-5-[1-ethyl-3-(trifluoromethyl)pyrazol-4-yl]-1-methylimidazole-2-carboxamide;hydrochloride]	0.421 µM	
C#CCn1cc(-c2cnc(C(=O)Nc3ccc(C(=O)N4CCN(C(=O)[C@H]5CCCN5)CC4)c(Cl)c3)n2C)c(C(F)(F)F)n1 [Example 38, N-[3-chloro-4-[4-[(2R)-pyrrolidine-2-carbonyl]piperazine-1-carbonyl]phenyl]-1-methyl-5-[1-prop-2-ynyl-3-(trifluoromethyl)pyrazol-4-yl]imidazole-2-carboxamide hydrochloride]	0.275 µM	
CCc1cc(NC(=O)c2ncc(-c3cn(CC(F)F)nc3C(F)(F)F)n2C)ccc1C(=O)N1CCN(C(=O)C2(O)CCNCC2)CC1 [Example 155, 5-[1-(2,2-difluoroethyl)-3-(trifluoromethyl)pyrazol-4-yl]-N-[3-ethyl-4-[4-(4-hydroxypiperidine-4-carbonyl)piperazine-1-carbonyl]phenyl]-1-methylimidazole-2-carboxamide;formic acid]	1.15 µM	
C[C@H](N)C(=O)N[C@H]1CC[C@@H](NC(=O)c2ccc(NC(=O)c3ncc(-c4cn(CC#N)nc4C(F)(F)F)n3C)cc2Cl)CC1 [Example 324, N-[4-[[4-[[(2S)-2-aminopropanoyl]amino]cyclo-hexyl]carbamoyl]-3-chlorophenyl]-5-[1-(cyanomethyl)-3-(trifluoromethyl)pyrazol-4-yl]-1-methylimidazole-2-carboxamide;2,2,2-trifluoroacetic acid]	0.408 µM	
CN(C)C(=O)Cn1cc(-c2cnc(C(=O)Nc3ccc(C(=O)N4CCN(C(=O)C5CCNCC5)CC4)c(Cl)c3)n2C)c(C(F)(F)F)n1 [Example 21, N-(3-chloro-4-(4-(piperidine-4-carbonyl)piperazine-1-carbonyl)phenyl)-5-(1-(2-(dimethylamino)-2-oxoethyl)-3-(trifluoromethyl)-1H-pyrazol-4-yl)-1-methyl-1H-imidazole-2-carboxamide formate]	1.87 µM	
C=Cn1cc(-c2cnc(C(=O)Nc3ccc(C(=O)N4CCN(C(=O)NC5CNC5)CC4)c(Cl)c3)n2C)c(C(F)(F)F)n1 [Example 171, N-(azetidin-3-yl)-4-(2-chloro-4-(1-methyl-5-(3-(trifluoromethyl)-1-vinyl-1H-pyrazol-4-yl)-1H-imidazole-2-carboxamido)benzoyl)piperazine-1-carboxamide]	0.207 µM	
Cn1c(-c2cn(CC3CC3)nc2C(F)(F)F)cnc1C(=O)Nc1ccc(C(=O)NCC2CN(C(=O)N[C@H]3C[C@@H](N)C3)C2)c(Cl)c1 [Example 373, rac-N-(4-(((1-(((1s,3s)-3-aminocyclobutyl)carbamoyl)aze-tidin-3-yl)methyl)carbamoyl)-3-chlorophenyl)-5-(1-(cyclopropylmethyl)-3-(trifluoromethyl)-1H-pyrazol-4-yl)-1-methyl-1H-imidazole-2-carboxamide formate]	0.494 µM	
N-[4-[4-[(3S)-3-carbonyl]piperazine-1-carbonyl]-3-chlorophenyl]-1-methyl-5-[1-prop-2-ynyl-3-(trifluoromethyl)pyrazol-4-yl]imidazole-2-carboxamide [Example 80]		IC90 (Acinetobacter baumannii ATCC 17961, Iso-Sensitest broth, read-out: ATCC 17961 IC90): 0.212 µM
Cn1c(-c2cn(CC3CC(F)(F)C3)nc2C(F)(F)F)cnc1C(=O)Nc1ccc(C(=O)N2CCN(C(=O)N[C@H]3C[C@@H](N)C3)CC2)c(Cl)c1 [Example 293, rac-N-((1s,3s)-3-aminocyclobutyl)-4-(2-chloro-4-(5-(1-((3,3-difluorocyclobutypmethyl)-3-(trifluoromethyl)-1H-pyrazol-4-yl)-1-methyl-1H-imidazole-2-carboxamido)benzoyl)piperazine-1-carboxamide hydrochloride]		IC90 (Acinetobacter baumannii, ATCC17961, read-out: ATCC 17961 IC90, Acinetobacter baumannii ATCC 17961, Iso-Sensitest broth): 0.363 µM
C#CCn1cc(-c2cnc(C(=O)Nc3ccc(C(=O)N4CCN(C(=O)N5CCC(N)CC5)CC4)c(Cl)c3)n2C)c(C(F)(F)F)n1 [Example 84, N-[4-[4-(4-aminopiperidine-1-carbonyl)piperazine-1-carbonyl]-3-chlorophenyl]-1-methyl-5-[1-prop-2-ynyl-3-(trifluoromethyl)pyrazol-4-yl]imidazole-2-carboxamide]	0.191 µM	
Cn1c(-c2cn(C3CC3)nc2C(F)(F)F)cnc1C(=O)Nc1ccc(C(=O)NCCCCCCN)c(Cl)c1 [Example 187, N-(4-((6-aminohexyl)carbamoyl)-3-chlorophenyl)-5-(1-cyclopropyl-3-(trifluoromethyl)-1H-pyrazol-4-yl)-1-methyl-1H-imidazole-2-carboxamide hydrochloride]	0.151 µM	
Cn1c(-c2cn(Cc3ccn[nH]3)nc2C(F)(F)F)cnc1C(=O)Nc1ccc(C(=O)N2CCN(C(=O)C3CCNCC3)CC2)c(Cl)c1 [Example 100, N-[3-chloro-4-[4-(piperidine-4-carbonyl)piperazine-1-carbonyl]phenyl]-1-methyl-5-[1-(1H-pyrazol-5-ylmethyl)-3-(trifluoromethyl)pyrazol-4-yl]imidazole-2-carboxamide]	1.03 µM	
Cn1c(-c2cn(CC#N)nc2C(F)(F)F)cnc1C(=O)Nc1ccc(C(=O)N2CCNCC2)c(Cl)c1 [Example 69, N-[3-chloro-4-(piperazine-1-carbonyl)phenyl]-5-[1-(cyanomethyl)-3-(trifluoromethyl)pyrazol-4-yl]-1-methylimidazole-2-carboxamide;2,2,2-trifluoroacetic acid]	0.309 µM	
Cn1c(-c2cn(C3CC3(F)F)nc2C(F)(F)F)cnc1C(=O)Nc1ccc(C(=O)N2C[C@H]3CN(C(=O)N[C@H]4CNC[C@@H]4O)C[C@H]3C2)c(Cl)c1 (mixture of isomers) [Example 288, rac-(3aR,6aS)-5-(2-chloro-4-(5-(1-(2,2-difluorocyclopropyl)-3-(trifluoromethyl)-1H-pyrazol-4-yl)-1-methyl-1H-imidazole-2-carboxamido)benzoyl)-N-((3R,4R)-4-hydroxypyrrolidin-3-yl)hexahydropyrrolo[3,4-c]pyrrole-2(1H)-carboxamide formate]	0.354 µM	
Cn1c(-c2cn(CC#N)nc2C(F)(F)F)cnc1C(=O)Nc1ccc(C(=O)N2CCN(C(=O)C3(O)CCCNC3)CC2)c(Cl)c1 (stereo not shown) [Example 72, N-[3-chloro-4-[4-(3-hydroxypiperidine-3-carbonyl)piperazine-1-carbonyl]phenyl]-5-[1-(cyanomethyl)-3-(trifluoromethyl)pyrazol-4-yl]-1-methylimidazole-2-carboxamide;2,2,2-trifluoroacetic acid]	2.26 µM	
C#CCn1cc(-c2cnc(C(=O)Nc3ccc(C(=O)NC[C@@H]4CCNC4)c(Cl)c3)n2C)c(C(F)(F)F)n1 [Example 31, (R)—N-(3-Chloro-4-((pyrrolidin-3-ylmethyl)carbamoyl)phenyl)-1-methyl-5-(1-(prop-2-yn-1-yl)-3-(trifluoromethyl)-1H-pyrazol-4-yl)-1H-imidazole-2-carboxamide hydrochloride]	0.962 µM	
C[C@H](N)C(=O)N1CCN(C(=O)c2ccc(NC(=O)c3ncc(-c4cn(CC5CCC5)nc4C(F)(F)F)n3C)cc2Cl)CC1 [Example 278, N-(4-(4-(L-alanyl)piperazine-1-carbonyl)-3-chlorophenyl)-5-(1-(cyclobutylmethyl)-3-(trifluoromethyl)-1H-pyrazol-4-yl)-1-methyl-1H-imidazole-2-carboxamide hydrochloride]	0.344 µM	
Cn1c(-c2cn(C3CCCC3)nc2C(F)(F)F)cnc1C(=O)Nc1ccc(C(=O)N2CCN(C(=O)C3CCNCC3)CC2)c(Cl)c1 [Example 274, N-(3-chloro-4-(4-(piperidine-4-carbonyl)piperazine-1-carbonyl)phenyl)-5-(1-cyclopentyl-3-(trifluoromethyl)-1H-pyrazol-4-yl)-1-methyl-1H-imidazole-2-carboxamide hydrochloride]	0.338 µM	
